In patent publication US9371307B2, “Serine protease inhibitors” (THE JOHNS HOPKINS UNIVERSITY, priority 2011, dated 2016):
Like-named read-outs stand apart in the source and are kept apart here.

Legend:
Format in all cases: biochemical
[1] = target: T1, human chymase (Homo sapiens, UniProt P23946); assay: Inhibition of chymase (Ki; Lineweaver-Burk double reciprocal plots)
T1 construct: In its active form within the secretory granules of mast cells, human chymase contains 226 amino acid residues
T1 sequence (P23946 22-247): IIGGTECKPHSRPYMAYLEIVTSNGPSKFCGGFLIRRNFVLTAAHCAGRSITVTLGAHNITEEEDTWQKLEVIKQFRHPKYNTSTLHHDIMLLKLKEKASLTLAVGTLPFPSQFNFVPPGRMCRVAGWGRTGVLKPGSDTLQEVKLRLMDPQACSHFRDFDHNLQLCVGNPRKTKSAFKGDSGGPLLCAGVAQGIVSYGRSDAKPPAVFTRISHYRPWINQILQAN

[2] = target: Tryptase (Homo sapiens, UniProt Q15661); assay: Selectivity of chymase inhibitors against tryptase; conditions: ratio of Ki enzyme/Ki chymase
Tryptase, sequence (Q15661 31-275): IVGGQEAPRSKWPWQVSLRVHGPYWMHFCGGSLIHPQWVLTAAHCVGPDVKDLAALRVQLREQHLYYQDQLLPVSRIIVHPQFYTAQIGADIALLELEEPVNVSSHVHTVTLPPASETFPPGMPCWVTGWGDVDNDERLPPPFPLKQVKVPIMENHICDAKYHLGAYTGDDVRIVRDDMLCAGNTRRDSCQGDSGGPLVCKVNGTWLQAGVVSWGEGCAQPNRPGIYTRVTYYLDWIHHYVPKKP
Description: (§1) As provided in Table 1, hereinabove in Example 2, selectivity was tested by measuring the inhibitory activity of ef-rs-03-075 and analogs against other serine proteases, including thrombin, trypsin, and tryrptase.

[3] = target: Thrombin (Homo sapiens, UniProt P00734); assay: Selectivity of chymase inhibitors against thrombin; conditions: ratio of Ki enzyme/Ki chymase
Description: as §1

[4] = target: DPPIV (Homo sapiens, UniProt P27487); assay: Selectivity of chymase inhibitors against DPPIV; conditions: ratio of Ki enzyme/Ki chymase
DPPIV, sequence (P27487 whole entry, species assumed): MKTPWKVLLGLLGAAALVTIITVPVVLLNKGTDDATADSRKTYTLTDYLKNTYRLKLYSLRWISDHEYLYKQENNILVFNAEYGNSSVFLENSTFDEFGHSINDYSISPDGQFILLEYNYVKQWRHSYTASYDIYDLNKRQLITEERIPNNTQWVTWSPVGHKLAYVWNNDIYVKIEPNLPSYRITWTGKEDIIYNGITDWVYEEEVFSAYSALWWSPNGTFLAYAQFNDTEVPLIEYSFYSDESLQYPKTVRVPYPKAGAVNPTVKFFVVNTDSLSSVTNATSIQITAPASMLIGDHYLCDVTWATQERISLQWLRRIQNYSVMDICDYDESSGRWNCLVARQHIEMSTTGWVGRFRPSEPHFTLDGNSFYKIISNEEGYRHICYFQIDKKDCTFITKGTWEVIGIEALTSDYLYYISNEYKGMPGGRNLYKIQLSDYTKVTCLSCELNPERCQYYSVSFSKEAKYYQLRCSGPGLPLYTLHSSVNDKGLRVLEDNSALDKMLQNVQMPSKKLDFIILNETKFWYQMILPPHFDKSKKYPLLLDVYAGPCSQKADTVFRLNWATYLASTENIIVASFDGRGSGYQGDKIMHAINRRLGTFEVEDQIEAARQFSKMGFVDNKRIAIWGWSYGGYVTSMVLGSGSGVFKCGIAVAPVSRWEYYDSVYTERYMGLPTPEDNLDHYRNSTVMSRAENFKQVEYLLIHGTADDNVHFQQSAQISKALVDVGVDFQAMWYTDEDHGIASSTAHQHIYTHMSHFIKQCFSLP

[5] = system: Trypsin; assay: Selectivity of chymase inhibitors against trypsin; conditions: ratio of Ki enzyme/Ki chymase
Description: as §1

SMILES	Ki ([1]; read-out: Chymase Ki) [µM]	Selectivity of chymase inhibitors: Tryptase [2]	Selectivity of chymase inhibitors: Thrombin [3]	Selectivity of chymase inhibitors: DPPIV [4]	inhibitory mechanism ([1]; double reciprocal plot of substrate concentration vs. reaction velocity, various inhibitor concentrations (FIG. 4))	Ki ([1]; value given in the description text as 'high affinity', read-out: affinity) [µM]	Selectivity of chymase inhibitors: Trypsin [5]
O=S(=O)(/C=C/c1cccc(Br)c1)N(Cc1ccccc1)c1cccc(Cl)c1 [ef-rs-03-015-P2]	1.58 ± 0.13	>260	>200	>100	–	–	–
O=S(=O)(/C=C/c1cccc(Cl)c1)N(Cc1cccc(Cl)c1)c1cccc(Cl)c1 [ef-rs-03-075, (E)-N-(3-chlorobenzyl)-N,2-bis(3-chlorophenyl)ethenesulfonamide]	0.959 ± 0.042	>410	>320	37	competitive inhibition	0.544	>110
O=S(=O)(/C=C/c1cccc(Cl)c1)N(Cc1cccc(F)c1)c1cccc(Cl)c1 [ef-rs-08-057]	1.19 ± 0.12	>80	>50	70	–	–	–
Cc1cccc(CN(c2cccc(Cl)c2)S(=O)(=O)/C=C/c2cccc(Cl)c2)c1 [ef-rs-08-049]	1.11 ± 0.22	>350	13	170	–	–	–
O=S(=O)(/C=C/c1cccc(Cl)c1)N(Cc1cccc(Cl)c1)c1cccc(OCc2cccc(Cl)c2)c1 [ef-rs-08-052]	0.978 ± 0.087	>100	>75	10	–	–	–
O=S(=O)(/C=C/c1cccc(Cl)c1)N(Cc1ccc(Cl)c(Cl)c1)c1cccc(Cl)c1 [ef-rs-08-051]	0.903 ± 0.15	>110	70	16	–	–	–
O=S(=O)(/C=C/c1cccc(Cl)c1)N(Cc1ccccc1)c1cccc(Cl)c1 [ef-rs-03-019-P4]	1.32 ± 0.28	>275	>200	>100	–	–	–
O=S(=O)(/C=C/c1cccc(Cl)c1)N(Cc1cccc(Br)c1)c1cccc(Cl)c1 [ef-rs-08-050]	1.22 ± 0.19	>320	45	40	–	–	–
O=S(=O)(/C=C/c1cccc(Br)c1)N(Cc1ccsc1)c1cccc(Cl)c1 [ef-rs-03-039-P1]	1.34 ± 0.39	>310	>60	17	–	–	–
O=S(=O)(/C=C/c1cccc(Cl)c1)N(Cc1ccc(Cl)cc1)c1cccc(Cl)c1 [ef-rs-08-056]	1.26 ± 0.2	>310	20	80	–	–	–
O=S(=O)(/C=C/c1cccc(Cl)c1)N(Cc1ccsc1)c1cccc(Cl)c1 [ef-rs-03-038-P1]	1.57 ± 0.39	>240	>60	34	–	–	–
